From patent publication US9718820B2, “Substituted aza-bicyclic imidazole derivatives useful TRPM8 receptor modulators” (Janssen Pharmaceutica NV, priority 2010, dated 2017)

How the values were obtained:
canine TRPM8 = canine TRPM8 (Canis lupus familiaris, UniProt Q1A7N1); assay: In vitro canine TRPM8 functional assay (icilin-induced intracellular Ca2+ increase, FLIPR/FDSS); type: cell-based; conditions: 0.2 μM compound; icilin response in HEK293 cells stably expressing canine TRPM8
Protocol: The functional activity of representative compounds of the formula (I) of the present invention was quantified by measuring changes in intracellular calcium concentration using a Ca^2+-sensitive fluorescent dye. The changes in fluorescent signal were monitored by a fluorescence plate reader, either a FLIPR™ (Molecular Devices) or FDSS (Hamamatsu).
HEK293 cells stably expressing canine TRPM8 were routinely grown as monolayers in Dulbecco's minimum essential medium supplemented with 10% FBS, 2 mM L-glutamine, 100 units/mL penicillin, 100 ug/mL streptomycin and 400 μg/mL G418. Cells were maintained in 5% CO2 at 37° C. […] Cells were treated with compounds of the formula (I) at varying concentrations and intracellular Ca^2+ was measured for 5 min prior to the addition of icilin to each well to achieve a final concentration that produces an approximately 80% maximal response.
Maximal fluorescence intensity (FI) achieved upon addition of icilin was exported from the FLIPR™ or FDSS software and further analyzed using GraphPad Prism 3.02 (Graph Pad Software Inc., CA, U.S.A.). […] Finally, the EC50 and IC50 values were calculated with the best-fit curve determined by GraphPad Prism

TRPM8 channel = TRPM8 channel (Rattus norvegicus (Rat), UniProt Q8R455); assay: Inhibition of icilin-induced "wet-dog" shakes in rats; type: in vivo; conditions: 10 mg/kg p.o. in 10% HP-β-CD, icilin 3.0 mg/kg i.p.
Chain of TRPM8 channel (Q8R455 whole entry): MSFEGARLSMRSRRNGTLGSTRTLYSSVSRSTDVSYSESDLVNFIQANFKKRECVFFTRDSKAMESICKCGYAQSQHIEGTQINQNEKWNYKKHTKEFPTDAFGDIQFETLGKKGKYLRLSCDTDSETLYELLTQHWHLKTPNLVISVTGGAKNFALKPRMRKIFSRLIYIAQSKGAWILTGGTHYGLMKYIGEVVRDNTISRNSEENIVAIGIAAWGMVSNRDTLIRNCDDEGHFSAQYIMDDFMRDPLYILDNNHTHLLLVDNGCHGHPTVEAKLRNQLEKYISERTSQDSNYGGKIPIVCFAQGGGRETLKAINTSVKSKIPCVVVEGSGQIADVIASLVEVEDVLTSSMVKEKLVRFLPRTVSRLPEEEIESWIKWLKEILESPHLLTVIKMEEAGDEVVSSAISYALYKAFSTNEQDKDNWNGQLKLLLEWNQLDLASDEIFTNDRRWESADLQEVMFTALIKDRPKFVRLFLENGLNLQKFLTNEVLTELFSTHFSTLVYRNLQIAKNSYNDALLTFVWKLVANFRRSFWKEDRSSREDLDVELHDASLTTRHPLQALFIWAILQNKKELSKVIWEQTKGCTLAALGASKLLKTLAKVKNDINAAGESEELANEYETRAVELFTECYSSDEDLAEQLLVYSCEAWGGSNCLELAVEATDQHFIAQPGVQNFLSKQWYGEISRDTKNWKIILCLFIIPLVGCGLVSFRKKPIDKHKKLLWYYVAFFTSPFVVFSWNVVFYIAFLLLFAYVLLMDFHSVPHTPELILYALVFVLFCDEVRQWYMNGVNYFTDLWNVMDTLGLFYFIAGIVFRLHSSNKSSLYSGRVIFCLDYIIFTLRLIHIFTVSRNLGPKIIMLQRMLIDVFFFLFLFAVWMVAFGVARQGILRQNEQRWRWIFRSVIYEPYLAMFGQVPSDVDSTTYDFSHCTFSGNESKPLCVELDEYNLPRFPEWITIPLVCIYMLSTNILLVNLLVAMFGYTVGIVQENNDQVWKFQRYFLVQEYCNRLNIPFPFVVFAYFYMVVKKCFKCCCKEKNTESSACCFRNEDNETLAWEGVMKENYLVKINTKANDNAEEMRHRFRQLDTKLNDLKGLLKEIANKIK
Protocol: Similar shaking or jumping behavior was also evident in mice, rabbits, cats, dogs and monkeys. In humans, icilin produced a sensation of coolness on contact with mucous membranes, cold prickling when 0.1 mg was dropped on the tongue and coldness in the mouth, pharynx and chest lasting 30-60 min when 5-10 mg was ingested orally (WEI, E. T., et al., “AG-3-5: a chemical producing sensations of cold”, J Pharm Pharmacol., 1983, pp 110-112, Vol. 35). The inhibition or reversal of icilin-induced shaking behaviors in rodents provides evidence for the engagement and functional blockade of the TRPM8 channel and thereby for the utility of TRPM8 antagonists in treating or preventing a disease or condition in a mammal in which the disease or condition is affected by the modulation of TRPM8 receptors.
Male Sprague Dawley rats (220-450 g, Charles River Labs, n=6-9/treatment) were used to evaluate the ability of test compounds to block icilin-induced “wet-dog” shakes (WDS). […] Icilin was then administered in 10% solutol/H2O, at 3.0 mg/kg, i.p., and spontaneous “wet-dog” shakes were counted 10 min following the icilin injection over a 10-min period.

Chain of canine TRPM8 (Q1A7N1 1-1104): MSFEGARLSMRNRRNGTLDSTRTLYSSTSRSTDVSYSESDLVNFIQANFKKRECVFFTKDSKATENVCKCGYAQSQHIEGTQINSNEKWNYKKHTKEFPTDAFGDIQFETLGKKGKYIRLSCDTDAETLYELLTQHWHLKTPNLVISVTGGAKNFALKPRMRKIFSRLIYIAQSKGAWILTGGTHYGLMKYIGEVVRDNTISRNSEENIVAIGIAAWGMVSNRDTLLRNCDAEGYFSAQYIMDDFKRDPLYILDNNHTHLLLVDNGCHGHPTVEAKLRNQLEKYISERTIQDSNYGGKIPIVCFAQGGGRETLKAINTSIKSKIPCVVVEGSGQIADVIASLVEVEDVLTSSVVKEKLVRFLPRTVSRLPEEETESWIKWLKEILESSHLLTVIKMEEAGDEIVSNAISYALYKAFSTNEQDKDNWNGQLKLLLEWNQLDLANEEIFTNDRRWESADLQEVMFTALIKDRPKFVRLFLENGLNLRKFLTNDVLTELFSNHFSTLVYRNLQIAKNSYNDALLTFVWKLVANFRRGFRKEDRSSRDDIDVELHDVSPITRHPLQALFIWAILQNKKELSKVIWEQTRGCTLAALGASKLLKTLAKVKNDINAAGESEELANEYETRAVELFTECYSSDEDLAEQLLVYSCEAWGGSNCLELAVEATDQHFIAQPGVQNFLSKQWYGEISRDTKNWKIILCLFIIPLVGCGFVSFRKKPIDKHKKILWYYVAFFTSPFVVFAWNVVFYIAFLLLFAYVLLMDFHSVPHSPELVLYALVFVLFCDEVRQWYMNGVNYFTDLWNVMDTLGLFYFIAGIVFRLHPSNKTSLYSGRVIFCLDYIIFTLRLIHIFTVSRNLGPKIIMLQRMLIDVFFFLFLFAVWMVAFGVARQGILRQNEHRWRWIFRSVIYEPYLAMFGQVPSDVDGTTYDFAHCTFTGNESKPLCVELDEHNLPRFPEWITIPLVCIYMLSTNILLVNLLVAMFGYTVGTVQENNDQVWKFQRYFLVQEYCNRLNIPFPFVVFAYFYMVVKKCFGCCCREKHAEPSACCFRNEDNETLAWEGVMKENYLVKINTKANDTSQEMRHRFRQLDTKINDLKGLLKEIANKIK

| Structure (SMILES) | % Inh @ 0.2 μM (canine TRPM8) [%] | Icilin % Inhibition @ 1.5 h, 10 mg/kg (TRPM8 channel) [%] |
| --- | --- | --- |
| Cn1nc(C(C)(C)C)c(Cl)c1-c1nc2nc(-c3ccccc3C(F)(F)F)cc(C(F)(F)F)c2[nH]1 [Compound 1] | 99 | – |
| COc1nc(-c2ccccc2Cl)cc2nc(-c3c(C#N)c(C(C)(C)C)nn3C)[nH]c12.CS(=O)(=O)O [Compound 17, 3-tert-Butyl-5-[6-(2-chloro-phenyl)-4-methoxy-3H-imidazo[4,5-c]pyridine-2-yl]-1-methyl-1H-pyrazole-4-carbonitrile methanesulfonic acid salt] | – | 38 |
| Cn1nc(C(C)(C)C)c(Cl)c1-c1nc2nc(-c3ccccc3Cl)cnc2[nH]1 [Compound 110] | 99 | – |
